The source of these data is patent US20230089867A1, “CYCLIC PENTAMER COMPOUNDS AS PROPROTEIN CONVERTASE SUBTILISIN/KEXIN TYPE 9 (PCSK9) INHIBITORS FOR THE TREATMENT OF METABOLIC DISORDER” (Novartis AG, priority 2018, published 2023).

As usually defined, the IC50 is the midpoint of a concentration-inhibition curve.

The experiment deals with human PCSK9 (Homo sapiens, UniProt Q8NBP7). Put plainly: PCSK9 ligand binding TR-FRET assay (interference with binding of human PCSK9 to human LDLR). The note with it: for Max % inhibition: PCSK9 FRET assay, efficacy (Amax), 100% = 1 uM unlabeled human PCSK9, 0% = DMSO; for IC50: TR-FRET, human PCSK9 Alexa Fluor 647 / human LDLR extracellular domain-Europium Kryptate, read-out: PCSK9 FRET Assay IC50. An outline of the steps: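 Threefold compound dilutions were pre-incubated 30 min with PCSK9, after which 4 nM Europium Kryptate-tagged human LDLR ectodomain was added for a further 2 h.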
Chain of human PCSK9 (Q8NBP7 153-692): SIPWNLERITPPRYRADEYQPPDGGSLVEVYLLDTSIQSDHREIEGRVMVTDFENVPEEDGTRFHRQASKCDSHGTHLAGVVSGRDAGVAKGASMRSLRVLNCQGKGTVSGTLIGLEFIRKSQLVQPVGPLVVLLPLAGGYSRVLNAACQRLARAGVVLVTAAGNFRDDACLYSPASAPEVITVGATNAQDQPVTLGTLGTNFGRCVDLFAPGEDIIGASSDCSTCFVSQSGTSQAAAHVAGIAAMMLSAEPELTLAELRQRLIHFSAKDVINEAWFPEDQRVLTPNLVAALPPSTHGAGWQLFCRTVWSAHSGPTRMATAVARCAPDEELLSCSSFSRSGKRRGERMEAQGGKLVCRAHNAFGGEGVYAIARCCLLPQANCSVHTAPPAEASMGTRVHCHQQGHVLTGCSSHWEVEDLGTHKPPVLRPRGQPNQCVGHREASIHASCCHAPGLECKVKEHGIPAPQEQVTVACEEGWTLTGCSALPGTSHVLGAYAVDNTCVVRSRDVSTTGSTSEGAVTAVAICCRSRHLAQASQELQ
Chain of human PCSK9 (Q8NBP7 31-152 partner limits assumed): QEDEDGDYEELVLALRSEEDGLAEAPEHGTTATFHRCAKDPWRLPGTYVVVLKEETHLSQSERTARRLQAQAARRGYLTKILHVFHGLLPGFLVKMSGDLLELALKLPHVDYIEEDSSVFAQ

Take `COC[C@@H]1NC(=O)[C@H](C)N(Cc2ccc(Cl)cc2Oc2ccc(-c3cnc(CN(C)C)n3C)cc2)C(=O)C[C@@H](Cc2c(F)c(F)cc(F)c2F)C(=O)N(C)[C@@H](C)CNC(=O)C[C@H](Cc2ccc(Cl)cc2)N(C)C1=O` [Compound 246, (2S,5S,8S,13S,16R)-1-(4-chloro-2-(4-(2-((dimethylamino)methyl)-1-methyl-1H-imidazol-5-yl)phenoxy)benzyl)-8-(4-chlorobenzyl)-5-(methoxymethyl)-2,7,13,14-tetramethyl-16-(2,3,5,6-tetrafluorobenzyl)-1,4,7,11,14-pentaazacyclooctadecane-3,6,10,15,18-pentaone]: the Max % inhibition was found to be 103.97% and the IC50 is 2.4 nM.
On the same counts, the results for `COC[C@@H]1NC(=O)[C@H](C)N(Cc2ccc(Cl)cc2Oc2ccc(-c3cnc(CN(C)C)n3C)cc2)C(=O)C[C@@H](Cc2ccccc2)C(=O)N(C)[C@H]2C[C@H]2NC(=O)C[C@H](Cc2ccc(Cl)cc2)N(C)C1=O` [Compound 247, (1R,5S,8S,11S,15R,18S)-15-benzyl-12-(4-chloro-2-(4-(2-((dimethylamino)methyl)-1-methyl-1H-imidazol-5-yl)phenoxy)benzyl)-5-(4-chlorobenzyl)-8-(methoxymethyl)-6,11,17-trimethyI-2,6,9,12,17-pentaazabicyclo[16.1.0]nonadecane-3,7,10,13,16-pentaone] are 98.86% and 33.2 nM.
Take `CC[C@H]1C(=O)N[C@@H](COC)C(=O)N(C)[C@@H](Cc2ccc(Cl)cc2F)CC(=O)NC[C@H](C)N(C)C(=O)[C@H](Cc2ccccc2)CC(=O)N1Cc1ccc(Cl)cc1Oc1ccc(-c2cnc(CN(C)C)n2C)cc1` [Compound 248, (2S,5S,8S,13S,16R)-16-benzyl-1-(4-chloro-2-(4-(2-((dimethylamino)methyl)-1-methyl-1H-imidazol-5-yl)phenoxy)benzyl)-8-(4-chloro-2-fluorobenzyl)-2-ethyl-5-(methoxymethyl)-7,13,14-trimethyl-1,4,7,11,14-pentaazacyclooctadecane-3,6,10,15,18-pentaone]: the Max % inhibition stood at 106.74% and the IC50 worked out at 2.2 nM.
Taken in the same sequence, the figures for `COC[C@@H]1NC(=O)[C@H](C)N(Cc2ccc(Cl)cc2Oc2ccc(-c3cnc4n3CC[N+]3(CCCC3)C4)cc2)C(=O)C[C@@H](Cc2ccccc2)C(=O)N(C)[C@@H](C)CNC(=O)C[C@H](Cc2ccc(Cl)cc2)N(C)C1=O.Cl.[Cl-]` [Compound 249, 3-(4-(2-(((2S,5S,8S,13S,16R)-16-benzyl-8-(4-chlorobenzyl)-5-(methoxymethyl)-2,7,13,14-tetramethyl-3,6,10,15,18-pentaoxo-1,4,7,11,14-pentaazacyclooctadecan-1-yl)methyl)-5-chlorophenoxy)phenyl)-5,6-dihydro-8H-spiro[imidazo[1,2-a]pyrazine-7,1′-pyrrolidin]-7-ium chloride hydrochloride] were 98.36% and 2.3 nM.
On the same counts, the results for `COC[C@@H]1NC(=O)[C@H](CCN(C)C)N(Cc2ccc(Cl)cc2Oc2ccc(-c3cnc(CN(C)C)n3C)cc2)C(=O)C[C@@H](Cc2ccccn2)C(=O)N(C)[C@H]2CCCC[C@@H]2NC(=O)C[C@H](Cc2ccc(Cl)cc2)N(C)C1=O` [Compound 250, (4S,7S,10S,14R,16aS,20aS)-11-(4-chloro-2-(4-(2-((dimethylamino)methyl)-1-methyl-1H-imidazol-5-yl)phenoxy)benzyl)-4-(4-chlorobenzyl)-10-(2-(dimethylamino)ethyl)-7-(methoxymethyl)-5,16-dimethyl-14-(pyridin-2-ylmethyl)hexadecahydrobenzo[l][1,4,7,11,14]pentaazacyclooctadecine-2,6,9,12,15(3H)-pentaone] are 84.24% and 0.4 nM.
Consider `COC[C@@H]1NC(=O)[C@H](CCCN2CCCC2)N(Cc2ccc(Cl)cc2Oc2ccc(-c3cnc(CN(C)C)n3C)cc2)C(=O)C[C@@H](Cc2ccccc2)C(=O)N(C)[C@H]2CCCC[C@@H]2NC(=O)C[C@H](Cc2ccc(Cl)cc2)N(C)C1=O` [Compound 251, (4S,7S,10S,14R,16aS,20aS)-14-benzyl-11-(4-chloro-2-(4-(2-((dimethylamino)methyl)-1-methyl-1H-imidazol-5-yl)phenoxy)benzyl)-4-(4-chlorobenzyl)-7-(methoxymethyl)-5,16-dimethyl-10-(3-(pyrrolidin-1-yl)propyl)hexadecahydrobenzo[l][1,4,7,11,14]pentaazacyclooctadecine-2,6,9,12,15(3H)-pentaone], for which the Max % inhibition amounted to 99.24% and the IC50 came out at 0.8 nM.
Taken in the same sequence, the figures for `COC[C@@H]1NC(=O)[C@H](CCCN2CCOCC2)N(Cc2ccc(Cl)cc2Oc2ccc(-c3cnc(CN4CCCC4)n3C)cc2)C(=O)C[C@@H](Cc2ccccc2)C(=O)N(C)[C@H]2CCCC[C@@H]2NC(=O)C[C@H](Cc2ccc(Cl)cc2)N(C)C1=O` [Compound 252, (4S,7S,10S,14R,16aS,20aS)-14-benzyl-11-(4-chloro-2-(4-(1-methyl-2-(pyrrolidin-1-ylmethyl)-1H-imidazol-5-yl)phenoxy)benzyl)-4-(4-chlorobenzyl)-7-(methoxymethyl)-5,16-dimethyl-10-(3-morpholinopropyl)hexadecahydrobenzo[l][1,4,7,11,14]pentaazacyclooctadecine-2,6,9,12,15(3H)-pentaone] were 92.00% and 2.1 nM.
Taken in the same sequence, the figures for `COC[C@@H]1NC(=O)[C@H](C)N(Cc2ccc(Cl)cc2Oc2ccc(-c3cnc(CN(C)C)n3C)cc2)C(=O)C[C@@H](Cn2cccn2)C(=O)N(C)[C@H]2CCCC[C@@H]2NC(=O)C[C@H](Cc2ccc(Cl)cc2)N(C)C1=O` [Compound 253, (4S,7S,10S,16aS,20aS)-14-((1H-pyrazol-1-yl)methyl)-11-(4-chloro-2-(4-(2-((dimethylamino)methyl)-1-methyl-1H-imidazol-5-yl)phenoxy)benzyl)-4-(4-chlorobenzyl)-7-(methoxymethyl)-5,10,16-trimethylhexadecahydrobenzo[l][1,4,7,11,14]pentaazacyclooctadecine-2,6,9,12,15(3H)-pentaone] were 98.40% and 1.5 nM.
On the same counts, the results for `COC[C@@H]1NC(=O)[C@H](CCCN2CC(F)(F)C(F)(F)C2)N(Cc2ccc(Cl)cc2Oc2ccc(-c3cnc(CN(C)C)n3C)cc2)C(=O)C[C@@H](Cc2ccccc2)C(=O)N(C)[C@H]2CCCC[C@@H]2NC(=O)C[C@H](Cc2ccc(Cl)cc2)N(C)C1=O` [Compound 254, (4S,7S,10S,14R,16aS,20aS)-14-benzyl-11-(4-chloro-2-(4-(2-((dimethylamino)methyl)-1-methyl-1H-imidazol-5-yl)phenoxy)benzyl)-4-(4-chlorobenzyl)-7-(methoxy-methyl)-5,16-dimethyl-10-(3-(3,3,4,4-tetrafluoropyrrolidin-1-yl)propyl)hexadecahydro-benzo[l][1,4,7,11,14]pentaazacyclooctadecine-2,6,9,12,15(3H)-pentaone] are 102.70% and 3 nM.
For the compound `COC[C@@H]1NC(=O)[C@H](C)N(Cc2ccc(Cl)cc2Oc2ccc(-c3cnc(CN(C)C)n3C)cc2)C(=O)C[C@@H](C)C(=O)N(C)[C@@H](CC(C)C)CNC(=O)C[C@H](Cc2ccc(Cl)cc2)N(C)C1=O` [Compound 255, (5S,8S,13S,16R)-1-(4-chloro-2-(4-(2-((dimethylamino)methyl)-1-methyl-1H-imidazol-5-yl)phenoxy)benzyl)-8-(4-chlorobenzyl)-13-isobutyl-5-(methoxymethyl)-2,7,14,16-tetramethyl-1,4,7,11,14-pentaazacyclooctadecane-3,6,10,15,18-pentaone], the Max % inhibition was 64.95% and the IC50 was 19.7 nM.
On the same counts, the results for `COC[C@@H]1NC(=O)[C@H](C)N(Cc2ccc(Cl)cc2Oc2ccc(-c3cnc(CN4CCCC4)n3C)cc2)C(=O)C[C@@H](Cc2ccccc2)C(=O)N(C)[C@@H](C)CNC(=O)C[C@H](Cc2ccc(Cl)cc2)NC1=O` [Compound 256, (2S,5S,8S,13S,16R)-16-benzyl-1-(4-chloro-2-(4-(1-methyl-2-(pyrrolidin-1-ylmethyl)-1H-imidazol-5-yl)phenoxy)benzyl)-8-(4-chlorobenzyl)-5-(methoxymethyl)-2,13,14-trimethyl-1,4,7,11,14-pentaazacyclooctadecane-3,6,10,15,18-pentaone] are 79.36% and 52.4 nM.
For `C[C@H]1CNC(=O)C[C@H](Cc2ccc(Cl)cc2)N(C)C(=O)[C@H](CCF)NC(=O)[C@H](C)N(Cc2ccc(Cl)cc2Oc2ccc(-c3cnc(CN4CCCC4)n3C)cc2)C(=O)C[C@@H](Cc2ccccc2)C(=O)N1C` [Compound 257, (2S,5S,8S,13S,16R)-16-benzyl-1-(4-chloro-2-(4-(1-methyl-2-(pyrrolidin-1-ylmethyl)-1H-imidazol-5-yl)phenoxy)benzyl)-8-(4-chlorobenzyl)-5-(2-fluoroethyl)-2,7,13,14-tetramethyl-1,4,7,11,14-pentaazacyclooctadecane-3,6,10,15,18-pentaone], the Max % inhibition amounted to 50.23% and the IC50 is 21.3 nM.
Take `COC[C@@H]1NC(=O)[C@H](C)N(Cc2ccc(Cl)cc2Oc2ccc(-c3cnc(CN(C)C)n3C)cc2)C(=O)C[C@@H](Cc2c(F)ccc(F)c2F)C(=O)N(C)[C@@H](C)CNC(=O)C[C@H](Cc2ccc(Cl)cc2)N(C)C1=O` [Compound 258, (2S,5S,8S,13S,16R)-1-(4-chloro-2-(4-(2-((dimethylamino)methyl)-1-methyl-1H-imidazol-5-yl)phenoxy)benzyl)-8-(4-chlorobenzyl)-5-(methoxymethyl)-2,7,13,14-tetramethyl-16-(2,3,6-trifluorobenzyl)-1,4,7,11,14-pentaazacyclooctadecane-3,6,10,15,18-pentaone]: the Max % inhibition amounted to 98.94% and the IC50 was 4.3 nM.
